This note sets out measurements from patent US12171744B2, “Pharmaceutical combinations for the treatment of cancer” (Presage Biosciences, Inc., priority 2016, dated 2024).

One assay concerns the target MAK (Homo sapiens, UniProt P20794). The experiment in a line: Kinase inhibition profile.
Another assay relates to NUDHL1 model of DLBCL. The assay is described as follows: Xenograft tumor growth. In kind it is in vivo, NOD SCID mice. Particulars: Voruciclib 200 mpk, Venetoclax 50 mpk. The protocol:
Immune deficient NOD SCID mice were implanted with the NUDHL1 model of DLBCL. The xenografted tumors were allowed to grow in the NOD SCID host until they reached 200 mm^3, at which point the xenografted animals were randomized into 4 study groups: 1. Vehicle control; 2. […] Venetoclax at 50 mpk; and 4. […] Venetoclax was dosed by oral gavage on days 1 and 4 of each weekly cycle. Drug effects were assessed via tumor volume measurements twice weekly by a technician blinded to the treatment of each subject in the study. N=5-6 animals per treatment arm.

In the next assay the target is T1, CDK1 (Homo sapiens, UniProt P06493).
T1 construct: purchased Reaction Biology Corp. (testing facility)
The assay is described as follows: Kinase inhibition profiling (filter binding assay with γ-33P-ATP). In kind it is biochemical. As for the experimental part: (§1) For each kinase, an IC50 value were calculated from a 10-point concentration curve of the test article and converted to Ki values.

The next assay has as its target T2, CDK4 (Homo sapiens, UniProt P11802).
T2 construct: purchased Reaction Biology Corp. (testing facility)
The description is as above. In kind it is biochemical. The protocol:
as §1

Another assay has as its target T3, CDK6 (Homo sapiens, UniProt Q00534).
T3 construct: purchased Reaction Biology Corp. (testing facility)
The description is as above. In kind it is biochemical. The protocol:
as §1

The subject of the next assay is OCI-AML-3. The assay is described as follows: Western blot of treated AML cells. The format is cell-based. As for the experimental part:
(§2) Cell lines shown in Table 1, adherent or suspension, were treated in 6-well dishes or T10 flasks respectively, seeded at one million per ml density prior to treatment in total volumes of 3-10 ml. All agents used for in vitro cell treatments were formulated in water/DMSO to achieve required concentrations (as stated in respective figure labels/legends) with DMSO concentrations not exceeding 0.01%. Drug sources are indicated in table under ‘CIVO microinjection studies’. Cells were harvested at experimental time points: 2, 6, or 24 hours post treatment as indicated in respective figures, first by washing cells twice in ice-cold PBS in 15 ml falcon tubes, centrifugation at 1000 rpm for 5 mins followed by lysis of the respective cell pellets as described in section below. Note: Drug resistant NUDHL1 Dox 1000 nM and Toledo Dox 1000 nM cell lines were generated at Presage by culturing parental lines in media with stepwise increments in Doxorubicin concentration over several passages. These cells were used to generate xenografts when resistance to 1 uM Dox was achieved.
(§3) Protein lysates were prepared by adding ice-cold 1×RIPA Buffer (from 10×, Millipore) with 1×-3× Halt protease and phosphatase inhibitor cocktail (100×, Pierce) to cell pellets, followed by pulse sonication (˜3-5 secs) three times. Lysates were cleared by centrifugation at 14K rpm for 15-20 mins and the supernatant (lysate) was collected for further analysis. To prepare lysates from cryopreserved xenograft tumor tissue, tissue was first homogenized using a hand-held tissue homogenizer (Cole Palmer) in above lysis buffer followed by pulse sonication and centrifugation as described above. Above steps were carried out under ice cold conditions. Protein samples were quantified using Bradford assay (Biorad) at 1:10 or higher dilutions using appropriate blank controls with 1×RIPA. 20-25 micrograms of protein from each sample were subject to SDS-PAGE using BOLT 4-12% Bis-Tris gels (Thermofisher) and transferred to either 0.45 or 0.2 micron pore size membranes (as applicable based on protein molecular size), and either nitrocellulose (NC) or pvdf (Thermofisher) using manufacturer's protocol, blocked for one hour in 5% milk at room temperature, probed with primary antibodies (Table 2) at 4 deg C. overnight and corresponding HRP-conjugated secondary antibodies (Jackson Immunoresearch, 1:10,000-1:20,000 dilutions) for 1 hour at room temperature. Three PBS/0.01% Tween-20 washes (5-10 mins each) were carried out after each antibody incubation. ECL chemiluminescent substrate (Pierce or GE) and autoradiographic film (Thermofisher) was used for detection of protein signals.
(§4) At the given time points, cells were lysed and subjected to western blot analysis with antibodies that specifically recognize phosphorylated RNA pol II (pSer2), MCL-1, cleaved PARP, and Beta-actin. […] Cleaved PARP (cPARP) may be used as a biomarker of apoptosis.
(§5) At the given time points, cells were lysed and subjected to western blot analysis with antibodies that specifically recognize phosphorylated RNA pol II (pSer2), MCL-1, cleaved PARP, and Beta-actin. […] Venetoclax is observed to induce MCL-1 upregulation in all three cell lines.
A general note: In western blotting, separated proteins are transferred to a membrane and probed.

A further assay has as its system MV-4-11. The experiment in a line: Western blot of treated AML cells. In kind it is cell-based. The protocol: as §2, §3, §4, §5
For another assay, the system named is SKM-1. The experiment in a line: Western blot of treated AML cells. The format is cell-based. As for the experimental part: as §2, §3, §4, §5
The next assay has as its system RIVA cells. The experiment in a line: CIVO microinjection, CC3 expression. Also noted: species or system mice. Particulars: mouse, in vivo. The protocol: Mice were enrolled into CIVO drug studies when the tumor volume reached approximately 1000 mm^3. Microinjection studies were performed using the CIVO device as previously described (Klinghoffer et al, Science Translational Medicine 2015) The device was configured with 6 injection needles set for a 6 mm injection length and a total volume delivery of 3 μl. A fluorescent tracking marker (FTM) was added to each drug reservoir in vehicle for delivery along with each drug or drug combination. All micro-doses were equivalent to or lower than what would be allowed under FDA guidelines for Exploratory IND (Investigational New Drug) studies and by solubility of drug into vehicle. Total amounts of agents injected are tabulated below in Table 4.

The subject of another assay is SU-DHL-4 model of DLBCL. The experiment in a line: Western blot of treated cells. In kind it is cell-based. The protocol:
as §2, §3
Cleaved PARP (cPARP) may be used as a biomarker of apoptosis. […] Cells were exposed to drug for 24 h prior to cell lysis and examination by Western Blot using antibodies specific for the cleaved form of PARP, MCL-1, C-MYC, and Beta actin (as a protein loading control) of FIG. 22A and BCL2 as an additional protein loading control in FIG. 22B.
Cleaved PARP (cPARP) may be used as a biomarker of apoptosis. To assess combination efficacy of the two agents of voruciclib and venetoclax together, low doses of each were examined as single agents or as a combination in the three models of DLBCL. Cells were exposed to drug for 24 h prior to cell lysis and examination by Western Blot using antibodies specific for the cleaved form of PARP and Beta actin (as a protein loading control).
FIG. 33 illustrates that voruciclib-induced apoptosis correlates with repression of MCL-1. Three DLBCL models were used: SUDHL4, RIvA, and U2932. Cleaved PARP (cPARP) may be used as a biomarker of apoptosis.

The mark [1] stands for this setting: voruciclib 1.5 and 5.0 micromolar, 2, 6, or 24 h.
[2] abbreviates: voruciclib 1.5 micromolar, venetoclax 100 nM, 24 h.
Setting [3] is: 0.15 uM voruciclib, 20 nM venetoclax, 24 h.
[4] abbreviates: increasing concentration of voruciclib, single agent.

MAK, sequence (P20794 whole entry): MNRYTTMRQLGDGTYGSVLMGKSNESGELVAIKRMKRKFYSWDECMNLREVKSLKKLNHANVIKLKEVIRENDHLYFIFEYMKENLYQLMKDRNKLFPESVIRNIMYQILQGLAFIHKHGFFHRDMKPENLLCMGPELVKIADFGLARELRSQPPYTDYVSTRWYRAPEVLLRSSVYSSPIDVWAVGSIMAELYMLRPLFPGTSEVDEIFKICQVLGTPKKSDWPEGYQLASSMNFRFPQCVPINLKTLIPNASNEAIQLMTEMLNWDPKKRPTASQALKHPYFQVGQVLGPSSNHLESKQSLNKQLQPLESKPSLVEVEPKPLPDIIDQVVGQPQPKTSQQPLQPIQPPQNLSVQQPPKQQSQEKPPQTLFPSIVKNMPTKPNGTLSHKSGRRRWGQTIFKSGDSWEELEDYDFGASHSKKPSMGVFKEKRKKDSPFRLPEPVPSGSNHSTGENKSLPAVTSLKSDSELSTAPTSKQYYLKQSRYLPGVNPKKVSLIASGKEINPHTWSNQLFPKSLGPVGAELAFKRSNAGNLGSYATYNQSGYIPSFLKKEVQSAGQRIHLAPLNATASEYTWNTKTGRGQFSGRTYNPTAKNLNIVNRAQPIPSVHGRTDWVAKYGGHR
T2 sequence (P11802 whole entry): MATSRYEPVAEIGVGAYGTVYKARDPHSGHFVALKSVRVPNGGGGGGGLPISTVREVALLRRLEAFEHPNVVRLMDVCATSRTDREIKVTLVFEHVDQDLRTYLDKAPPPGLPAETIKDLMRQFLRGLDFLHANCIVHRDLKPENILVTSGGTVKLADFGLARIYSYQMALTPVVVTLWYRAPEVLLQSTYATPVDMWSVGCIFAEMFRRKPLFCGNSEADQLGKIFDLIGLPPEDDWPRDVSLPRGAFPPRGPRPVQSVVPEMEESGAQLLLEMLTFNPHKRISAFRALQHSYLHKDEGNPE
T2 sequence (P24385 whole entry partner): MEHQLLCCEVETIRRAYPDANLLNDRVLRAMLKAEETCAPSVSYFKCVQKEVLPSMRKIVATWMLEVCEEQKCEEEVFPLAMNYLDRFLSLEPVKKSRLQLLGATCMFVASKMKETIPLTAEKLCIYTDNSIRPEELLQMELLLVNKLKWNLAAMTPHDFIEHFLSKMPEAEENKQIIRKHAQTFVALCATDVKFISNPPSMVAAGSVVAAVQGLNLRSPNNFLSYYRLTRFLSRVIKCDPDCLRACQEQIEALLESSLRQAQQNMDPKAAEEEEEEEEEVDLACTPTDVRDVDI
T1 sequence (P06493 whole entry): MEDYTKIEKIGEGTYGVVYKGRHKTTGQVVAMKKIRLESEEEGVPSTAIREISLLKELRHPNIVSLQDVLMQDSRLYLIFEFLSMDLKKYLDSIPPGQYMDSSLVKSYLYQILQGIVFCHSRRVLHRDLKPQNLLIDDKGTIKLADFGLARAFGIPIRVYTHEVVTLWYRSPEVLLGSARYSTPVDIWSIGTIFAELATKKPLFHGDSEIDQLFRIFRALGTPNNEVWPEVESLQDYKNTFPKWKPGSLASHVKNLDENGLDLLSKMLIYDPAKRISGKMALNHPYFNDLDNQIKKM
T1 sequence (P14635 whole entry partner): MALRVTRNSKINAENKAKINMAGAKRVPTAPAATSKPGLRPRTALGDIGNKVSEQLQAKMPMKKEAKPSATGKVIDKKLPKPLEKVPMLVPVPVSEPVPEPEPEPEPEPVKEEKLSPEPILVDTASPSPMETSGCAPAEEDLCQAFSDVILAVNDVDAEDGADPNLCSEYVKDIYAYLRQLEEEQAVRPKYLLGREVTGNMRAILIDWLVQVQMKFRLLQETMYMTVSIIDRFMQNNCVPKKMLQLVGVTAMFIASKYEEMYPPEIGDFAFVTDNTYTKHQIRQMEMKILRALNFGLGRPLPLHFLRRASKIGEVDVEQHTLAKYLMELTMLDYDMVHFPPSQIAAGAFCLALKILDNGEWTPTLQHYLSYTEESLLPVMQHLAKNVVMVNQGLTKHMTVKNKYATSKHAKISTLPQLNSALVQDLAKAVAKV
T3 sequence (Q00534 whole entry): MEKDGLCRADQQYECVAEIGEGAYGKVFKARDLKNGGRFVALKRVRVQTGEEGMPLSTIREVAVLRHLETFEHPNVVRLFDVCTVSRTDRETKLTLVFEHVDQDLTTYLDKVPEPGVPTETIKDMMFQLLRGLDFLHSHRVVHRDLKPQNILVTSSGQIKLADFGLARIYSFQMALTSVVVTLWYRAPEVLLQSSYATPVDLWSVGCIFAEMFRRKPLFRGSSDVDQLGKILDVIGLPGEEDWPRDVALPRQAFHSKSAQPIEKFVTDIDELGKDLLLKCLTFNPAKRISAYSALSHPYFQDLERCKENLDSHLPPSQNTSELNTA
T3 sequence (P24385 whole entry partner): as the sequence (P24385 whole entry partner) above

On to `CN1CC[C@@H](c2c(O)cc(O)c3c(=O)cc(-c4ccc(C(F)(F)F)cc4Cl)oc23)[C@@H]1CO` (relative stereo) [voruciclib, (+)-trans-2-(2-Chloro-4-trifluoromethylphenyl)-5,7-dihydroxy-8-(2-hydroxymethyl-1-methylpyrrolidin-3-yl)-chromen-4-one], for which the “inhibition of MAK” value on MAK was “does not show potent inhibition”. In the assay on NUDHL1 model of DLBCL, the “tumor size (images)” value is given as “smaller”. In addition, the potency entry at CDK1, on CDK4 and at CDK6 was “single digit” in each case. Also, the MCL-1 result with OCI-AML-3 (setting [1]) is “suppresses”; in the assay with OCI-AML-3 (setting [2]), “dampens”; in the assay with MV-4-11 (setting [1]), “suppresses”; in the assay with MV-4-11 (setting [2]), “dampens”; in the assay on SKM-1 (setting [1]) it was “suppresses”; in the assay with SKM-1 (setting [2]), “dampens”. Further, the MCL-1 entry in the assay with SU-DHL-4 model of DLBCL (setting [4]) was “suppresses”. Also, the “apoptosis (cleaved PARP)” value with OCI-AML-3 (setting [1]) is on record as “induces apoptosis”; in the assay with MV-4-11 (setting [1]) it was “induces apoptosis”; with SKM-1 (setting [1]) it was “induces apoptosis”; in the assay on SU-DHL-4 model of DLBCL (setting [3]), “neither compound induces apoptosis as a single agent”. For the same compound, the “apoptosis (PARP)” value in the assay on OCI-AML-3 (setting [2]), with MV-4-11 (setting [2]) and with SKM-1 (setting [2]) was “neither agent alone induces apoptosis” each time. The CC3 expression entry with RIVA cells is on record as “slight effect”. In addition, in the assay with SU-DHL-4 model of DLBCL (0.15 uM voruciclib with 20 nM venetoclax, 24 h), the “venetoclax-induced MCL-1” value is “represses”. Besides, the MCL-1 expression result in the assay with SU-DHL-4 model of DLBCL (setting [3]) is reported as “maintains some efficacy for repressing”. Besides, the “apoptosis (cPARP)” value in the assay with SU-DHL-4 model of DLBCL (setting [4]) was “increases as the concentration of voruciclib increases”. For the same compound, the MCL1 entry in the assay with SU-DHL-4 model of DLBCL (voruciclib 1.5 uM, 24 h, Western blot) was “suppresses”.
